≈ marks a conversion by molar mass, not a printed value. Where a SMILES comes first, the peptide text is derived from it. [ ]: non-standard residue; d: D form. Orn = NCCC[C@H](N)C(=O)O
Tests used:
E. coli 25922 = experiment: microbe, parasite or virus in culture; format: cell-based, Escherichia coli; details: 25922, 20 h
Protocol: (§1) The test strains, including Gram-negative E. coli ATCC25922, E. coli ATCC 1005, S. typhimurium C7731, P. aeruginosa ATCC 27853, S. Typhimurium 14028, Gram-positive S. aureus ATCC29213, S. aureus ATCC 25923, S. epidermidis ATCC 12228 and S. aureus 43300, were obtained from the School of Veterinary Medicine, Northeast Agricultural University (Harbin, China).
(§2) Briefly, the bacteria were incubated overnight at 37 °C with constant shaking at 220 rpm, then were transferred to new MH broth (MHB) medium until they reached the logarithmic phase of growth. The bacteria were then diluted to 10^5 (CFU)/mL in MHB. The peptides were dissolved and diluted in 0.01% acetic acid and 0.2% bovine serum albumin (BSA) at various concentrations (0.5–128 μM) in each well of sterile 96-well plates and incubated for 20 h at 37 °C. […] The test was repeated three times.

E. coli UB 1005 = experiment: microbe, parasite or virus in culture; format: cell-based, Escherichia coli; details: UB 1005, 20 h
Protocol: as §1, §2

S. aureus 25923 = experiment: microbe, parasite or virus in culture; format: cell-based, Staphylococcus aureus; details: 25923, 20 h
Protocol: as §1, §2

S. aureus 29213 = experiment: microbe, parasite or virus in culture; format: cell-based, Staphylococcus aureus; details: 29213, 20 h
Protocol: as §1, §2

MRSA43300 = experiment: microbe, parasite or virus in culture; format: cell-based, Methicillin-resistant Staphylococcus aureus; details: 20 h
Protocol: as §1, §2

P. aeruginosa 27853 = experiment: microbe, parasite or virus in culture; format: cell-based; details: 27853, 20 h; read-out: MIC
Protocol: as §1, §2

S. epidermidis 12228 = experiment: microbe, parasite or virus in culture; format: cell-based; details: 12228, 20 h
Protocol: as §1, §2

S. typhimurium 14028 = experiment: microbe, parasite or virus in culture; format: cell-based; details: 14028, 20 h
Protocol: as §1, §2

S. typhimurium 7731 = experiment: microbe, parasite or virus in culture; format: cell-based; details: 7731, 20 h
Protocol: as §1, §2

[1] = tested on: gram-negative strains tested; experiment: Geometric mean of MICs, gram-negative strains; format: cell-based; details: 5 gram-negative strains; >128 apparently counted as 256; read-out: nGM (–), geometric mean of the MICs against gram-negative strains
Protocol: as §2

[2] = tested on: gram-positive strains tested; experiment: organism not typed; format: cell-based; details: 20 h
Protocol: as §2

[3] = tested on: all the 9 bacteria tested; experiment: Geometric mean of MICs, all 9 bacteria; format: cell-based; details: for GM MIC (range of Gram-negative and Gram-positive geometric means): Table 2; for tGM, geometric mean of the MICs against all the 9 bacteria: all 9 bacteria tested
Protocol: as §2

[4] = tested on: lipopolysaccharide (LPS, derived from E. coli 055: B5); experiment: BODIPY-TR-cadaverine displacement assay (LPS binding)
Protocol: (§3) Figure 3 (A) The combining ability of OIR3 and gramicidin S (GS; 0.5 μM, 1 μM, 2 μM, […], 8 μM, 16 μM and 32 μM) with lipopolysaccharide (LPS). (B) SPR spectroscopy of the interaction kinetics of the peptides and LPS. The peptides were immobilized on a CM5 sensor chip as a ligand, and LPS was diluted in a series of concentrations (3.125, 6.25, 12.5, 25 and 50 μg/mL). Data shown are three independent experiments.
The BODIPY-TR-cadaverine (BC) displacement assay was previously used to quantify the binding affinities of test compounds to LPS [61]. The fluorescent dye BC is quenched by binding to LPS, causing its fluorescence to disappear. When the antimicrobial peptide is added, if the binding of the peptide to LPS is stronger, BODIPY-TR-cadaverine will be released and the fluorescence restored. Briefly, in a 96-well plate, an equal volume with a different concentration (0.5–64 μM) of peptide was added to a mixture (100 μL) of LPS (25 μg/mL) and BC (2.5 μg/mL) in Tris buffer (pH 7.4), and the background fluorescence was recorded (excitation wavelength 580 nm, emission wavelength 620 nm). The changes in fluorescence were recorded using a Tecan Infinite M200 PRO (Tecan, San Jose, CA, USA); polymyxin B was used as a positive control. Each test was performed independently, in triplicate.

LPS = experiment: Surface plasmon resonance of peptide-LPS interaction; format: binding; details: peptide on CM5 chip, LPS 3.125–50 µg/mL, 20 mM Tris, 100 mM NaCl, pH 7.4
Protocol: as §3
Surface plasmon resonance (SPR) is a method commonly used to study protein–protein interactions. The main advantage of SPR is that it provides the ability to measure the binding affinities and association/dissociation kinetics of complexes in real time, in a label-free environment, and using relatively small quantities of materials. Real-time binding interactions between peptides and LPS were measured by using the Biacore 3000 instrument (GE Healthcare, Waukesha, Wisconsin, USA). In […] sodium acetate buffer (pH 5.5), the cyclic antimicrobial peptides OIR3, IR3, DIR3 and GS were diluted to an optimum fixed concentration of 25.6 µM, and then covalently immobilized on the CM5 sensor chip; nearly 1100 resonant units (RU) of the peptide were captured. All measurements were performed in 20 mM Tris buffer (pH 7.4) containing 100 mM NaCl. […]

E. coli ATCC 25,922 = experiment: Flow cytometry membrane integrity assay (PI uptake); format: cell-based; details: PI 10 ug/mL, 30 min at 4 °C
Protocol: Figure 7 Flow cytometric analysis. Exponential phase E. coli cells were treated with GS, OIR3 and cellular fluorescence was analyzed by flow cytometry.
Membrane integrity assay. […] FACS flow cytometer (Becton–Dickinson, Franklin Lake, New Jersey, USA USA) was used to obtain the data with a laser excitation wavelength of 488 nm.

[5] = tested on: oxazolone-induced ear edema; experiment: Oxazolone-induced skin inflammation (allergic dermatitis model); details: for ear thickness and ear punch weight: mice, topical 0.5%, 1% or 2% w/v on right ear, 24 h after treatment
Protocol: ICR mice (male, 4–6 weeks old, and 18–22 g) were obtained from the Experimental Animal Center of Harbin Medical University.
4-Ethoxymethylene-2-phenyl-2-oxazolin-5-one (oxazolone, OXA) was used to induce ear edema in mice [66]. […] The fur was clipped from each animal’s abdomen the day before the experiment was conducted. On the day of the experiment (day 0), 50 ul 3% oxazolone induction solution (prepared in a 5:1 (v/v) mixture of acetone: corn oil carrier) was applied to all mice as a single topical application to the shaved abdomen. After 5 days, 50 µL of 1% oxazolone challenge solution (prepared in acetone) was applied as a single topical application to the dorsal area of the right ear for 1 h. Of the peptide solution, vehicle control or positive control (dexamethasone) solution 20 µL was applied topically to the dorsal area of the right ear. The left ear was used as a control. 24 h later, the mice were euthanized by cervical dislocation under ether anesthesia, and two ear punches (6 mm, i.d.) were collected and weighed. The degree of edema and the increase in ear thickness were determined by the increase in the weight and thickness of the right ear punch when compared with that of the left ear.
(4) Ear weight increase %=[Right ear weight (mg)− Left ear weight (mg)]/Left ear weight (mg)× 100%
(5) Increase of the ear thickness% =Right ear thickness (mm)−Left ear thinkcess (mm)/Left ear thickness×100%
Mouse ear tissues were ground in liquid nitrogen and 1 mL of Trizol was added. The total RNA content in each group of ears was extracted using the conventional Trizol method. qRT-PCR was used to measure the mRNA level of inflammatory cytokines TNF-α, IL-6 and IL-1β in mouse ear tissues. One microgram total of RNA was reverse transcribed using M-MLV reverse transcriptase (Takara, Japan). qRT-PCR was performed using a SYBR Green Mix kit (Takara, Japan) with a 7500 Real-Time PCR system according to the manufacturer’s instructions. The mRNA expression levels were normalized to β-actin using the (2^−∆∆Ct) method. The gene expression was normalized to the corresponding mGAPDH level. […]

Compound	MIC (E. coli 25922) [µM]	MIC (E. coli UB 1005) [µM]	MIC (S. aureus 25923) [µM]	MIC (S. aureus 29213) [µM]	MIC (MRSA43300) [µM]	MIC (P. aeruginosa 27853) [µM]	MIC (S. epidermidis 12228) [µM]	MIC (S. typhimurium 14028) [µM]	MIC (S. typhimurium 7731) [µM]	MIC [1] [µM]	pGM (+), geometric mean of the MICs against gram-positive strains [2] [µM]	GM MIC (range of Gram-negative and Gram-positive geometric means) [3] [µM]	tGM, geometric mean of the MICs against all the 9 bacteria [3] [µM]	binding of LPS to immobilized peptide (SPR) (LPS)	percentage of PI-positive cells (E. coli ATCC 25,922; 1/2× MIC (OIR3 1 µM, GS 2 µM)) [%]	percentage of PI-positive cells (E. coli ATCC 25,922; 1× MIC (OIR3 2 µM, GS 4 µM)) [%]	percentage of PI-positive cells (E. coli ATCC 25,922; 2× MIC (OIR3 4 µM, GS 8 µM)) [%]	ear thickness and ear punch weight [5]	other results
CC(C)C[C@@H]1NC(=O)[C@H](CCCN)NC(=O)[C@H](C(C)C)NC(=O)[C@@H]2CCCN2C(=O)[C@@H](Cc2ccccc2)NC(=O)[C@H](CC(C)C)NC(=O)[C@H](CCCN)NC(=O)[C@H](C(C)C)NC(=O)[C@@H]2CCCN2C(=O)[C@@H](Cc2ccccc2)NC1=O [GS, gramicidin S, reference compound] (cyclo(V[Orn]L[dF]PV[Orn]L[dF]P))	4 (≈ 4.57 µg/mL)	4 (≈ 4.57 µg/mL)	2 (≈ 2.28 µg/mL)	2 (≈ 2.28 µg/mL)	2 (≈ 2.28 µg/mL)	4 (≈ 4.57 µg/mL)	2 (≈ 2.28 µg/mL)	16 (≈ 18.3 µg/mL)	8 (≈ 9.13 µg/mL)	6.1 (≈ 6.96 µg/mL)	2	2 to 6.1	3.7	weak binding to LPS at high concentrations and almost no binding at the low concentrations	7.3	37.8	93.3	increased	combining ability with LPS ([4]; all concentrations tested (0.5–32 μM)): relatively low
CC[C@H](C)[C@@H]1NC(=O)[C@H](CCCNC(=N)N)NC(=O)[C@H]([C@@H](C)CC)NC(=O)[C@@H]2CCCN2C(=O)[C@H](CCCNC(=N)N)NC(=O)[C@H]([C@@H](C)CC)NC(=O)[C@H](CCCNC(=N)N)NC(=O)[C@H]([C@@H](C)CC)NC(=O)[C@H](CCCNC(=N)N)NC(=O)[C@H]([C@@H](C)CC)NC(=O)[C@@H]2CCCN2C(=O)[C@H](CCCNC(=N)N)NC(=O)[C@H]([C@@H](C)CC)NC(=O)[C@H](CCCNC(=N)N)NC1=O [OIR3] (cyclo(IRIRIRPIRIRIRP))	2 (≈ 3.62 µg/mL)	2 (≈ 3.62 µg/mL)	4 (≈ 7.24 µg/mL)	4 (≈ 7.24 µg/mL)	4 (≈ 7.24 µg/mL)	8 (≈ 14.5 µg/mL)	4 (≈ 7.24 µg/mL)	4 (≈ 7.24 µg/mL)	4 (≈ 7.24 µg/mL)	3.5 (≈ 6.34 µg/mL)	4.0	3.5 to 4.0	3.7	rapidly binds	25	62	76.4	significantly reduced	LPS-binding activity ([4]; 2 μM peptide, BODIPY-TR-cadaverine displacement, LPS 25 μg/mL, Tris buffer pH 7.4): 81%; LPS neutralized (LPS-binding activity) ([4]; 4 μM peptide, BODIPY-TR-cadaverine displacement, LPS 25 μg/mL, Tris buffer pH 7.4): 98%; expression of mRNA of TNF-α, IL-1β and IL-6 in mouse ear tissue ([5]; qRT-PCR, oxazolone-induced skin inflammation): significantly down-regulated
